Experiments:
[1] = tested on: histamine-induced bronchoconstriction; experiment: aerosol histamine challenge test (histamine-induced bronchoconstriction); format: in vivo, guinea pig
Method: As has been mentioned, compounds of this invention also show activity as potential drugs for controlling bronchial asthma. Using an aerosol histamine challenge test in guinea pigs [a modification of the method of M. E. Rosenthale et al, Experientia, 26, 119 (1970)], the ability of 8-aza-16,16-difluoroprostanoids administered by i.p. injection to protect against histamine-induced bronchoconstriction was measured. Using injections of 0.5 mg/kg and evaluating the guinea pigs 60 minutes after the injections, compound 6 gave 40% protection, compound 6l (15 RS) gave 39% protection, and compound 6d(15 RS) gave 14% protection. An oral dose of compound 8 at 5 mg/kg gave 80% protection at 2 hours.

[2] = tested on: necrosis and inflammation of the stomach caused by ethanol; experiment: protection of rat stomach from ethanol-caused necrosis and inflammation (cytoprotection, oral); format: in vivo, rat (fasted, male); settings: for Percent Protection 2 mg/kg, at 1 hr / inhibition in vivo at 2 mg/kg / ED50: oral; for Percent Protection 2 mg/kg, at 1 hr / inhibition in vivo at 2 mg/kg: 1 hr between compound and ethanol; for cytoprotective effect (in words): rat, in vivo; for inhibition in vivo at 2 mg/kg / ED50: Rattus norvegicus; for inhibition in vivo at 2 mg/kg: po, 1 h, read-out: Percent Protection 2 mg/kg, at 1 hr; for ED50: 50% protection, at peak time; for Peak Time: interval between compound and ethanol at which greatest protection is observed
Method: Some differences in the cytoprotective properties of these optical isomers are indicated by data in Table I. Using a method similar to that of Robert [U.S. Pat. No. 4,097,603 (1978)], fasted, male rats were treated with 8-azaprostanoids orally and various times later they were treated orally with 1.0 ml of absolute ethanol. The rats were sacrificed after ethanol administration and the stomachs were removed, inspected, and rated. The ED50 values in Table I represent the doses of 8-aza-16,16-difluoroprostanoids that gave 50% protection from the necrosis and inflammation of the stomach caused by ethanol. Values for the natural prostaglandin E1 (PGE1) and for two known nonfluorinated 8-azaprostanoids are given for comparison.
*"1 hr" refers to the one hour interval between administration of compoun
and subsequent ethanol administration.
**"Peak Time" refers to that interval between administration of compound
and administration of ethanol at which greatest protection is observed.

PGE1 = PGE1 antagonist test on isolated rat stomach strips
Description: These PGE1 antagonist tests were run on isolated rat stomach strips.

[3] = i.p. 0.5 mg/kg, 60 minutes after injection, 0.5 mg/kg

SMILES | inhibition in vivo at 2 mg/kg [2] [%] | ED50 [2] [mg/kg] | Peak Time [2] [min] | other results
CCCCCCC(F)(F)C(O)C=CC1CCC(=O)N1CCCCCCC(=O)OC(C)(C)C (single isomer, unassigned) [6l (15RS), tert-Butyl 7-[2-Oxo-5(R or S)5(4,4-difluoro-3-hydroxy-1n-dec-1(E)-enyl)-1-pyrrolidinyl]heptanoate] |  |  |  | protection against histamine-induced bronchoconstriction [1, 3]: 39%; Percent Protection 2 mg/kg, at 1 hr [2]: 59%
CCCCCCC(F)(F)C(O)C=CC1CCC(=O)N1CCCCCCC(=O)OC(C)(C)C (single isomer, unassigned) [6d (15RS), tert-Butyl 7-[2-Oxo-5(R or S)5(4,4-difluoro-3-hydroxy-1n-dec-1(E)-enyl)-1-pyrrolidinyl]heptanoate] |  |  |  | protection against histamine-induced bronchoconstriction [1, 3]: 14%; IC50 against PGE1 (PGE1): 3 to 5 µg/mL; Percent Protection 2 mg/kg, at 1 hr [2]: -5%; cytoprotective effect (in words) [2]: no (or a negative) cytoprotective effect
CCCCCCC(F)(F)[C@H](O)/C=C/[C@H]1CCC(=O)N1CCCCCCC(=O)OC(C)(C)C (single isomer, unassigned) [6l (15R), tert-Butyl 7-[2-Oxo-5(R or S)-5-(4,4-difluoro-3(R or S)-3hydroxy-1-n-dec-1(E)-enyl)-1-pyrrolidinyl]heptanoate] | 59 |  |  | 
CCCCC(F)(F)C(O)/C=C/C1CCC(=O)N1CCCCCCC(=O)OC(C)(C)C (racemic) [Compound 13, racemic t-Butyl 7-[2-Oxo-5(RS)-5-(4,4-difluoro-3(RS)-3-hydroxy-1-n-oct-1(E)-enyl)-1-pyrrolidinyl]heptanoate] | 66 | 0.8 | 15 | 
CCCCCCC(F)(F)[C@@H](O)/C=C/[C@H]1CCC(=O)N1CCCCCCC(=O)O (single isomer, unassigned) [7l (15S), 7-[2-Oxo-5(R or S)-5-(4,4-difluoro-3(R or S)-3-hydroxy-1n-dec-1(E)-enyl)-1-pyrrolidinyl]heptanoic Acid] |  | 0.01 |  | 
CC(C)(C)OC(=O)CCCCCCN1C(=O)CCC1/C=C/C(O)C(F)(F)c1ccccc1 (racemic) [Compound 21, racemic tert-Butyl 7-[2-Oxo-5(RS)-5-(4,4-difluoro-3(RS)-hydroxy-4-phenyl-1n-but-1(E)-enyl)-1-pyrrolidinyl]heptanoate] | 68 |  |  | 
CCCCCCC(F)(F)[C@@H](O)/C=C/[C@H]1CCC(=O)N1CCCCCCC(=O)OC(C)(C)C (single isomer, unassigned) [6l (15S), tert-Butyl 7-[2-Oxo-5(R or S)-5-(4,4-difluoro-3(R or S)-3hydroxy-1-n-dec-1(E)-enyl)-1-pyrrolidinyl]heptanoate] | 9 |  |  | 
CCCCCCC(F)(F)C(O)/C=C/C1CCC(=O)N1CCCCCCC(=O)O (racemic) [Compound 7, racemic 7-[2-Oxo-5(RS)-(4,4-difluoro-3(RS)-hydroxy-1-n-dec-1(E)-enyl)-1-pyrrolidinyl]heptanoic Acid] | 91 | 0.0035 | 15 | 
CCCCCC(O)C=CC1CCC(=O)N1CCCCCCC(=O)OC (stereo not shown) [methyl 7-[2-oxo-5-(3-hydroxy-1-oct-1-enyl)-1-pyrrolidinyl]heptanoate, reference compound] | 60 | 1.8 | 60 | 
CCCCCCC(F)(F)C(O)/C=C/C1CCC(=O)N1CCCCCCC(=O)OC (racemic) [Compound 8, racemic Methyl 7-[2-Oxo-5(RS)-5-(4,4-difluoro-3(RS)-3-hydroxy-1-n-dec-1-(E)-enyl)-1-pyrrolidinyl]heptanoate] | 91 | 0.005 | 15 | protection against histamine-induced bronchoconstriction ([1]; oral 5 mg/kg, at 2 hours): 80%
CCCCC[C@H](O)/C=C/[C@H]1[C@H](O)CC(=O)[C@@H]1CCCCCCC(=O)O [PGE1, prostaglandin E1, reference compound] |  | 0.011 | 5 | 
CCCCCCC(F)(F)C(O)/C=C/C1CCC(=O)N1CCCCCCC(=O)OC(C)(C)C (racemic) [Compound 6, racemic tert-Butyl 7-[2-Oxo-5(RS)-5-(4,4-difluoro-3(RS)-3-hydroxy-1n-dec-1(E)-enyl)-1-pyrrolidinyl]-heptanoate] | 32 |  |  | protection against histamine-induced bronchoconstriction ([1]; i.p. 0.5 mg/kg, 60 minutes after injection): 40%; PGE1 antagonism (in words) (PGE1): weaker PGE1 antagonist; cytoprotective effect (in words) [2]: some cytoprotective activity
CCCCC(F)(F)C(O)/C=C/C1CCC(=O)N1CCCCCCC(=O)OC (stereo not shown) [Compound 15] | 88 | 0.025 | 15 | 
CCCCCCC(F)(F)[C@H](O)/C=C/[C@H]1CCC(=O)N1CCCCCCC(=O)O [7l (15R), 7-[2-oxo-5(R)-5-(4,4-difluoro-3(R)-3-hydroxy-1n-dec-1(E)-enyl)-1-pyrrolidinyl]heptanoic acid] |  | 0.0007 | 15 | 
CCCCCC(O)C=CC1CCC(=O)N1CCCCCCC(=O)O (stereo not shown) [7-[2-oxo-5-(3-hydroxy-1-oct-1-enyl)-1-pyrrolidinyl]heptanoic acids, reference compound] | 40 | 3 | 60 | 
O=C(O)CCCCCCN1C(=O)CCC1/C=C/C(O)C(F)(F)c1ccccc1 (racemic) [Compound 22] | 82 |  |  | 
CCCCC(F)(F)C(O)/C=C/C1CCC(=O)N1CCCCCCC(=O)O (racemic) [Compound 14, racemic 7-[2-Oxo-5(RS)-5-(4,4-difluoro-3(RS)-3-hydroxyl-1-n-oct-1(E)-enyl)-1-pyrrolidinyl]heptanoic Acid] |  | 0.22 | 60 | 
